{"source": "patent US12448399B2", "about": "“Cereblon-based KRAS degrading PROTACs and uses related thereto” (Arvinas Operations, Inc., priority 2023, dated 2025)", "target": "T1, KRas-G12D (Homo sapiens, UniProt P01116, G12D)", "T1 construct": "insert the HiBiT tag onto the N-terminus of one or more of the endogenous KRas alleles; host or cells: AsPC-1 HiBiT-KRasG12D knock-in clone (one tagged allele, two untagged KRasG12D alleles)", "T1 sequence (P01116 1-188 isoform P01116-2 G12D)": "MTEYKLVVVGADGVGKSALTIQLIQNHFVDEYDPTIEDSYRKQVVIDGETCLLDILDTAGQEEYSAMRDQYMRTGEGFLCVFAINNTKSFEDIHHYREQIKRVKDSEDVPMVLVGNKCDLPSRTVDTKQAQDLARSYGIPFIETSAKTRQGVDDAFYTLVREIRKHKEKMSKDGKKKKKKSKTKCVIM", "test": "HiBiT Degradation Assay (G12D), AsPC-1 HiBiT-KRasG12D cells, 24 hr", "assay_type": "cell-based", "conditions": "for Dmax: ASPC1, AsPC-1 cells, maximum degradation observed; for DC50: AsPC-1 cells", "procedure,_shortened": "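AsPC-1 cells with CRISPR N-terminal HiBiT knock-in on one endogenous KRasG12D allele, treated 24 hr at 37° C with compound titrations in 0.5% DMSO. Lytic HiBiT luminescence normalized to DMSO, fitted to a 4-parameter model for DC50 and Dmax. Parallel alamar blue (4 hr) checked viability.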"}
{"smiles": "C#Cc1c(F)ccc2cc(O)cc(-c3ncc4c(N5CC6CCC(C5)N6)nc(OCCN5CCC(OC6CCN(CC7CCN(c8ccc9c(c8F)CN(C8CCC(=O)NC8=O)C9=O)CC7)CC6)CC5)nc4c3F)c12", "note": "(stereo not drawn) [Compound 106, 3-{5-[4-({4-[(1-{2-[(4-{3,8-diazabicyclo[3.2.1]octan-3-yl}-7-(8-ethynyl-7-fluoro-3-hydroxynaphthalen-1-yl)-8-fluoropyrido[4,3-d]pyrimidin-2-yl)oxy]ethyl}piperidin-4-yl)oxy]piperidin-1-yl}methyl)piperidin-1-yl]-4-fluoro-1-oxo-2,3-dihydro-1H-isoindol-2-yl}piperidine-2,6-dione]", "values": [{"measurement": "Dmax", "value": "> 70", "unit": "%"}, {"measurement": "DC50", "value": "< 5.1", "unit": "µM"}]}
{"smiles": "C#Cc1c(F)ccc2cc(O)cc(-c3cnc4c(N5CC6CCC(C5)N6)nc(OCCN5CCC(CC6CCN(CC7CCN(c8ccc9c(c8F)CN(C8CCC(=O)NC8=O)C9=O)CC7)CC6)CC5)nc4c3)c12", "note": "(stereo not drawn) [Compound 107]", "values": [{"measurement": "DC50", "value": "> 1", "unit": "µM"}]}
{"smiles": "C#Cc1c(F)ccc2cc(O)cc(-c3ccc4c(N5CC6CCC(C5)N6)nc(OCCN5CCC(CC6CCN(CC7CCN(c8ccc9c(c8F)CN(C8CCC(=O)NC8=O)C9=O)CC7)CC6)CC5)nc4c3)c12", "note": "(stereo not drawn) [Compound 108]", "values": [{"measurement": "Dmax", "value": "≤ 25", "unit": "%"}, {"measurement": "DC50", "value": "< 5.1", "unit": "µM"}]}
{"smiles": "C#Cc1c(F)ccc2cc(O)cc(-c3ncc4c(N5CC6CCC(C5)N6)nc(OCCN5CCC(CC6CCN(CC7CCN(c8ccc9c(c8Cl)CN(C8CCC(=O)NC8=O)C9=O)CC7)CC6)CC5)nc4c3F)c12", "note": "(stereo not drawn) [Compound 109, 3-(5-(4-((4-((1-(2-((4-(-3,8-diazabicyclo[3.2.1]octan-3-yl)-7-(8-ethynyl-7-fluoro-3-hydroxynaphthalen-1-yl)-8-fluoropyrido[4,3-d]pyrimidin-2-yl)oxy)ethyl)piperidin-4-yl)methyl)piperidin-1-yl)methyl)piperidin-1-yl)-4-chloro-1-oxoisoindolin-2-yl)piperidine-2,6-dione]", "values": [{"measurement": "Dmax", "value": "> 70", "unit": "%"}, {"measurement": "DC50", "value": "< 5.1", "unit": "µM"}]}
{"smiles": "C#Cc1c(F)ccc2cc(O)cc(-c3ncc4c(N5CC6CCC(C5)N6)nc(OCCN5CCC(CC6CCN(CC7CCN(c8ccc9c(c8)C(=O)N(C8CCC(=O)NC8=O)C9)CC7)CC6)CC5)nc4c3F)c12", "note": "(stereo not drawn) [Compound 110, 3-{6-[4-({4-[(1-{2-[(4-{3,8-diazabicyclo[3.2.1]octan-3-yl}-7-(8-ethynyl-7-fluoro-3-hydroxynaphthalen-1-yl)-8-fluoropyrido[4,3-d]pyrimidin-2-yl)oxy]ethyl}piperidin-4-yl)methyl]piperidin-1-yl}methyl)piperidin-1-yl]-1-oxo-2,3-dihydro-1H-isoindol-2-yl}piperidine-2,6-dione]", "values": [{"measurement": "Dmax", "value": "> 70", "unit": "%"}, {"measurement": "DC50", "value": "< 5.1", "unit": "µM"}]}
{"smiles": "C#Cc1c(F)ccc2cc(O)cc(-c3ncc4c(N5CC6CCC(C5)N6)nc(OCCN5CCC(CN6CCN(CC7CCN(c8ccc9c(c8)CN(C8CCC(=O)NC8=O)C9=O)CC7)CC6)CC5)nc4c3F)c12", "note": "(stereo not drawn) [Compound 111, 3-[5-[4-[[4-[[1-[2-[4-(3,8-diazabicyclo[3.2.1]octan-3-yl)-7-(8-ethynyl-7-fluoro-3-hydroxy-1-naphthyl)-8-fluoro-pyrido[4,3-d]pyrimidin-2-yl]oxyethyl]-4-piperidyl]methyl]piperazin-1-yl]methyl]-1-piperidyl]-1-oxo-isoindolin-2-yl]piperidine-2,6-dione]", "values": [{"measurement": "Dmax", "value": "> 70", "unit": "%"}, {"measurement": "DC50", "value": "< 5.1", "unit": "µM"}]}
{"smiles": "C#Cc1c(F)ccc2cc(O)cc(-c3ncc4c(N5CC6CCC(C5)N6)nc(OC[C@@H]5C[C@@H](OC6CCN(CC7(F)CCN(c8ccc9c(c8F)CN(C8CCC(=O)NC8=O)C9=O)CC7)CC6)CN5C)nc4c3F)c12", "note": "(stereo partly drawn) [Compound 112, 3-(5-{4-[(4-{[(3R,5S)-5-{[(4-{3,8-diazabicyclo[3.2.1]octan-3-yl}-7-(8-ethynyl-7-fluoro-3-hydroxynaphthalen-1-yl)-8-fluoropyrido[4,3-d]pyrimidin-2-yl)oxy]methyl}-1-methylpyrrolidin-3-yl]oxy}piperidin-1-yl)methyl]-4-fluoropiperidin-1-yl}-4-fluoro-1-oxo-2,3-dihydro-1H-isoindol-2-yl)piperidine-2,6-dione]", "values": [{"measurement": "Dmax", "value": "> 70", "unit": "%"}, {"measurement": "DC50", "value": "< 5.1", "unit": "µM"}]}
{"smiles": "C#Cc1c(F)ccc2cc(O)cc(-c3ncc4c(N5C[C@H]6CC[C@@H](C5)N6)nc(OC[C@@H]5C[C@@H](OC6CCN(CC7CCN(c8ccc9c(c8Cl)CN(C8CCC(=O)NC8=O)C9=O)CC7)CC6)CN5C)nc4c3F)c12", "note": "(stereo partly drawn) [Compound 113, 3-(5-(4-((4-(((3R,5S)-5-(((4-((1R,5S)-3,8-diazabicyclo[3.2.1]octan-3-yl)-7-(8-ethynyl-7-fluoro-3-hydroxynaphthalen-1-yl)-8-fluoropyrido[4,3-d]pyrimidin-2-yl)oxy)methyl)-1-methylpyrrolidin-3-yl)oxy)piperidin-1-yl)methyl)piperidin-1-yl)-4-chloro-1-oxoisoindolin-2-yl)piperidine-2,6-dione]", "values": [{"measurement": "Dmax", "value": "> 70", "unit": "%"}, {"measurement": "DC50", "value": "< 5.1", "unit": "µM"}]}
{"smiles": "C#Cc1c(F)ccc2cc(O)cc(-c3ncc4c(N5CC6CCC(C5)N6)nc(OC[C@@H]5CC[C@@H](COC(=O)N6CCN(c7ccc8c(c7)CN(C7CCC(=O)NC7=O)C8=O)CC6)N5C)nc4c3F)c12", "note": "(stereo partly drawn) [Compound 114, [(2S,5S)-5-{[(4-{3,8-diazabicyclo[3.2.1]octan-3-yl}-7-(8-ethynyl-7-fluoro-3-hydroxynaphthalen-1-yl)-8-fluoropyrido[4,3-d]pyrimidin-2-yl)oxy]methyl}-1-methylpyrrolidin-2-yl]methyl 4-[2-(2,6-dioxopiperidin-3-yl)-1-oxo-2,3-dihydro-1H-isoindol-5-yl]piperazine-1-carboxylate]", "values": [{"measurement": "DC50", "value": "< 5.1", "unit": "µM"}]}
{"smiles": "C#Cc1c(F)ccc2cc(O)cc(-c3ncc4c(N5CC6CCC(C5)N6)nc(OC[C@@H]5C[C@@H](OC6CCN(CC7CCN(c8cccc9c8CN(C8CCC(=O)NC8=O)C9=O)CC7)CC6)CN5C)nc4c3F)c12", "note": "(stereo partly drawn) [Compound 115, 3-(4-{4-[(4-{[(3R,5S)-5-{[(4-{3,8-diazabicyclo[3.2.1]octan-3-yl}-7-(8-ethynyl-7-fluoro-3-hydroxynaphthalen-1-yl)-8-fluoropyrido[4,3-d]pyrimidin-2-yl)oxy]methyl}-1-methylpyrrolidin-3-yl]oxy}piperidin-1-yl)methyl]piperidin-1-yl}-1-oxo-2,3-dihydro-1H-isoindol-2-yl)piperidine-2,6-dione]", "values": [{"measurement": "Dmax", "value": "> 70", "unit": "%"}, {"measurement": "DC50", "value": "< 5.1", "unit": "µM"}]}
{"smiles": "C#Cc1c(F)ccc2cc(O)cc(-c3ncc4c(N5CC6CCC(C5)N6)nc(OC[C@@H]5C[C@@H](OC6CCN(CC7CCN(c8ccc9c(c8)CN(C8CCC(=O)NC8=O)C9=O)CC7)CC6)CN5C)nc4c3F)c12", "note": "(stereo partly drawn) [Compound 116]", "values": [{"measurement": "Dmax", "value": "> 70", "unit": "%"}, {"measurement": "DC50", "value": "< 5.1", "unit": "µM"}]}
{"smiles": "C#Cc1c(F)ccc2cc(O)cc(-c3ncc4c(N5CC6CCC(C5)N6)nc(OC[C@@H]5CC[C@@H](COC(=O)N6CCN(c7cccc8c7CN(C7CCC(=O)NC7=O)C8=O)CC6)N5C)nc4c3F)c12", "note": "(stereo partly drawn) [Compound 117, [(2S,5S)-5-{[(4-{3,8-diazabicyclo[3.2.1]octan-3-yl}-7-(8-ethynyl-7-fluoro-3-hydroxynaphthalen-1-yl)-8-fluoropyrido[4,3-d]pyrimidin-2-yl)oxy]methyl}-1-methylpyrrolidin-2-yl]methyl 4-[2-(2,6-dioxopiperidin-3-yl)-1-oxo-2,3-dihydro-1H-isoindol-4-yl]piperazine-1-carboxylate]", "values": [{"measurement": "DC50", "value": "0.25 to 1", "unit": "µM"}]}
{"smiles": "CCc1cccc2cc(O)cc(-c3ncc4c(N5CC6CCC(C5)N6)nc(OC[C@@H]5C[C@@H](OC6CCN(c7cccc8c7CN(C7CCC(=O)NC7=O)C8=O)CC6)CN5C)nc4c3F)c12", "note": "(stereo partly drawn) [Compound 118, 3-[4-(4-{[(3R,5S)-5-{[(4-{3,8-diazabicyclo[3.2.1]octan-3-yl}-7-(8-ethyl-3-hydroxynaphthalen-1-yl)-8-fluoropyrido[4,3-d]pyrimidin-2-yl)oxy]methyl}-1-methylpyrrolidin-3-yl]oxy}piperidin-1-yl)-1-oxo-2,3-dihydro-1H-isoindol-2-yl]piperidine-2,6-dione]", "values": [{"measurement": "DC50", "value": "> 1", "unit": "µM"}]}
{"smiles": "C#Cc1c(F)ccc2cc(O)cc(-c3ncc4c(N5CC6CCC(C5)N6)nc(OCCN5CCC6(CC5)CN(CC5(F)CCN(c7ccc8c(c7F)CN(C7CCC(=O)NC7=O)C8=O)CC5)C6)nc4c3F)c12", "note": "(stereo not drawn) [Compound 119, 3-(5-{4-[(7-{2-[(4-{3,8-diazabicyclo[3.2.1]octan-3-yl}-7-(8-ethynyl-7-fluoro-3-hydroxynaphthalen-1-yl)-8-fluoropyrido[4,3-d]pyrimidin-2-yl)oxy]ethyl}-2,7-diazaspiro[3.5]nonan-2-yl)methyl]-4-fluoropiperidin-1-yl}-4-fluoro-1-oxo-2,3-dihydro-1H-isoindol-2-yl)piperidine-2,6-dione]", "values": [{"measurement": "DC50", "value": "< 5.1", "unit": "µM"}]}
{"smiles": "C#Cc1c(F)ccc2cc(O)cc(-c3ncc4c(N5CC6CCC(C5)N6)nc(OCCN5CCC6(CC5)CCN(CC5(F)CCN(c7ccc8c(c7F)CN(C7CCC(=O)NC7=O)C8=O)CC5)CC6)nc4c3F)c12", "note": "(stereo not drawn) [Compound 120, 3-(5-{4-[(9-{2-[(4-{3,8-diazabicyclo[3.2.1]octan-3-yl}-7-(8-ethynyl-7-fluoro-3-hydroxynaphthalen-1-yl)-8-fluoropyrido[4,3-d]pyrimidin-2-yl)oxy]ethyl}-3,9-diazaspiro[5.5]undecan-3-yl)methyl]-4-fluoropiperidin-1-yl}-4-fluoro-1-oxo-2,3-dihydro-1H-isoindol-2-yl)piperidine-2,6-dione]", "values": [{"measurement": "Dmax", "value": "> 70", "unit": "%"}, {"measurement": "DC50", "value": "< 5.1", "unit": "µM"}]}
{"smiles": "C#Cc1c(F)ccc2cc(O)cc(-c3ncc4c(N5CC6CCC(C5)N6)nc(OCCN5CCC6(CC5)CCN(CC5CCN(c7ccc8c(c7F)CN(C7CCC(=O)NC7=O)C8=O)CC5)CC6)nc4c3F)c12", "note": "(stereo not drawn) [Compound 121, 3-[5-[4-[[9-[2-[4-(3,8-diazabicyclo[3.2.1]octan-3-yl)-7-(8-ethynyl-7-fluoro-3-hydroxy-1-naphthyl)-8-fluoro-pyrido[4,3-d]pyrimidin-2-yl]oxyethyl]-3,9-diazaspiro[5.5]undecan-3-yl]methyl]-1-piperidyl]-4-fluoro-1-oxo-isoindolin-2-yl]piperidine-2,6-dione]", "values": [{"measurement": "Dmax", "value": "> 70", "unit": "%"}, {"measurement": "DC50", "value": "< 5.1", "unit": "µM"}]}
